Reference: PMC8911640, “Synthesis and Structure–Activity Relationship of Thioacetamide-Triazoles against Escherichia coli” (Molecules, 2022)
Values after ≈ are worked out from the molar mass of the structure shown. Values joined by “and” are separate entries in the source; they are usually repeats but may differ in a detail not shown here. Equal entries are not always repeated. Where two headings read alike, the source gives them in different places.

Key:
[1] = Metabolic (microsomal) stability (mouse); assay type: in vitro ADME; conditions: microsomes; for half-life: read-out: Metabolic Stability (Mouse) t1/2 (converted)
Method: (§1) The in vitro ADME values (solubility, mouse plasma stability, human plasma stability, mouse metabolic stability, and human metabolic stability) were determined as previously reported.

[2] = Metabolic (microsomal) stability (human); assay type: in vitro ADME; conditions: microsomes; for half-life: read-out: Metabolic Stability (Human) t1/2 (converted)
Method: as §1

E. coli K12 MG1655 = assay: MIC testing by CLSI broth microdilution in M9-based minimal media ATCC 2511, with or without methionine; assay type: cell-based, Escherichia coli; conditions: for MIC90: Escherichia coli
Method: To explore the SAR around the right hand aryl portion of the TAT series (Table 1), compounds were evaluated for their in vitro antibacterial activity against E. coli in the M9-based minimal media ATCC 2511. […]. An MIC shift between the two medias was used to indicate that antibacterial activity of the compounds remained on target, and this was happily seen with all of the most MIC active compounds generated in this study. Within the first series of compounds in Table 1, modifications to the phenyl ring are generally well tolerated. MICs remain within 2-fold of the initial hit 1 for the fluoro- and cyano- substituted compounds 1–8. […]. Incorporating the electron-donating group -OMe and sterically bulky iodine group in both ortho and para position, 17–20, maintained activity, whereas the introduction of the strong electron-withdrawing -CF3 group, 21 and 22, led to poorer MIC activity. […] The phenyl ring isosteres—thiazoles 25 and 26—both retained good MIC activity. Adding a methyl branch to the thioacetamide linker 28 and 29 led to a striking loss of activity. Replacement of the aryl group with the aliphatic groups cyclohexyl 31, cyclopentyl 32, tert-butyl groups 33 all reduced activity.
MICs were determined following CLSI broth microdilution susceptibility M100 guidelines. Compound solutions were prepared in DMSO and serially diluted 1:2 in 100 μL/well in 96 well round-bottom plates. E. coli K12 MG1655 was acquired from ATCC and strictly maintained in the M9-based media ATCC 2511. ATCC 2511 was also used for all further cultivation and MIC testing. Bacteria were grown from a single colony to a mid-log OD600 and frozen in 0.5 mL aliquots. These aliquots were used to directly inoculate the assay plates by diluting to an OD600 of 0.001 and plating 100 μL per well, allowing for ~10^5 CFU to be added to each well.

Plasma stability (mouse) = assay type: in vitro ADME; conditions: read-out: Plasma Stability (Mouse) t1/2 (converted)
Method: as §1

Solubility = assay type: physicochemical; conditions: for solubility: pH 7.4, aqueous buffer
Method: as §1

Plasma stability (human) = assay type: in vitro ADME; conditions: read-out: Plasma Stability (Human) t1/2 (converted)
Method: as §1

[3] = Pharmacokinetic evaluation in mice, single intravenous dose; assay type: in vivo; conditions: 10 mg/kg, plasma
Method: Pharmacokinetic parameters of 25 in plasma following a single intravenous dose of 10mg/kg administration to male Balb/c mice were done at SAI LifeSciences Ltd., Telangana, India (Table S2). Briefly, nine male mice were used in this study. All the animals were administered with 25 solution formulation in 5% NMP, 5% Solutol HS-15 and 90% Normal saline intravenously at 10 mg/kg dose. Blood samples (~60 μL) were collected from retro orbital plexus under light isoflurane anesthesia at following time points at Pre-dose, 0.08, 0.25, 0.5, 1, 2, 4, 8 and 24 h. Blood samples were collected from a set of three mice at each time point (sparse sampling) in labeled microcentrifuge tube containing 20% K2EDTA solution as anticoagulant. Plasma samples were separated by centrifugation of whole blood and stored below −70 ± 10 °C until bioanalysis. All samples were processed for analysis by protein precipitation using acetonitrile (ACN) and analyzed with fit-for-purpose LC/MS/MS method (LLOQ: 5.04 ng/mL). Pharmacokinetic parameters were calculated using the non-compartmental analysis tool of Phoenix WinNonlin (Version 7.0). All procedures of the study were in accordance with the guidelines provided by the Committee for the Purpose of Control and Supervision of Experiments on Animals (CPCSEA) as published in The Gazette of India, 15 December 1998. Prior approval of the Institutional Animal Ethics Committee (IAEC) was obtained before initiation of the study.

E. coli K12 = assay: Whole cell accumulation in E. coli K12 (LC-MS/MS); parameters: dose or concentration left out as unconfirmed; conditions: 10 min, 37 °C; average of three biological replicates
Method: Drug uptake in whole cell E. coli K12, was performed following a modified protocol adapted from previously published studies [17, 25, 26, 27]. […] After incubation, 800 mL of antibiotic-exposed cells were spun (3 min, 13,000× g) through 700 mL of a 9:1 mix of AR20 and high temperature silicon oils (cooled to −80°C). The supernatant of silicone oil and free compound in PBS was carefully removed from pellet. Intracellular concentration of antibiotics within the bacterial cells was then determined.
For lysis, cells were resuspended in 200 mL of water and lysed by three freeze-thaw cycles of 3 min each in liquid nitrogen and in a 60 °C water bath. Lysed cells were pelleted and 150 mL of aqueous extract was transferred to a clean 1.5 mL microcentrifuge tube. Cell debris was resuspended in the remaining 50 mL of water and then extracted with 100 mL of methanol. Cells were again centrifuged, 100 mL of the methanol extract were removed and combined with the water supernatant. The extracts were allowed to rest at room temperature for 1 h before being centrifuged for 10 min at 20,000× g. Finally, extracts were filtered through a 0.22mm spin column to remove any remaining cellular debris.
Samples were analyzed with a Waters Acquity M Class series UPLC system and Xevo G2 QTOF tandem MS/MS with Zspray. Using a Phenomenex Kinetex 2.6 μm XB-C18, 100 Å (300 μm × 150 mm) column with solvent A, 0.1% formic acid in water, and solvent B, 0.1% formic acid in acetonitrile, 250 nL of extract were separated. […] High-resolution spectra were calibrated by co-infusion of 2 ng/mL leucine enkephalin lockspray (Waters). Data were quantified using Waters MassLynx software where the AUC was determined by integrating the daughter peak of the parent ion. Concentrations of the unknown compounds were determined by the linear fit of the standard curve. Concentrations were normalized to the culture density, determined via titers, to 10^10 CFU and are reported as the average of three biological replicates.

[4] = MG1655, read-out: E. coli K12 MIC90
[5] = No Supplement (N.S.), ATCC 2511 media, 16 h, 37 °C, read-out: E. coli K12 MIC90
[6] = pH 7.4 (Table S1), read-out: Solubility Avg. Sol
[7] = pH = 7.4, average of triplicate ± standard deviation
[8] = No Supplement (N.S.), ATCC 2511 media, 16 h, 37 °C
[9] = pH = 7.4, average of triplicate ± standard deviation, read-out: Avg. Sol

| SMILES | CLint scaled [1] [mL/min/kg] | half-life [1] [h] | CLint scaled [2] [mL/min/kg] | half-life [2] [h] | MIC90 (E. coli K12 MG1655; [4]) [µg/mL] | MIC90 (E. coli K12 MG1655; [5]) [µg/mL] | half-life (Plasma stability (mouse)) [h] | %Soluble (Solubility; pH 7.4 (Table S1)) [%] | solubility (Solubility; [6]) | half-life (Plasma stability (human)) [h] | E. coli K12 MIC90 (E. coli K12 MG1655; [8]) [µg/mL] | solubility (Solubility; [9]) [µg/mL] | further results |
| --- | --- | --- | --- | --- | --- | --- | --- | --- | --- | --- | --- | --- | --- |
| N#Cc1ccccc1NC(=O)CSc1cnn[nH]1 [Compound 3] | 50.5 | 1.13 ± 0.05 | 5.7 | 3.7 ± 0.3 | 12.5 (≈ 48.2 µM) | 3.1 (≈ 12 µM) | 1.1 ± 0.02 | 73.3 | 19 µg/mL and 73.3 µM | 23 ± 1.1 | – | – | Avg. Sol (Solubility; [7]): 19 ± 1.5 µg/mL |
| O=C(CSc1cnn[nH]1)Nc1nccs1 [Compound 25] | 29.1 | 2 ± 0.1 | 5.8 | 3.6 ± 0.3 | 12.5 (≈ 51.8 µM) | 3.1 (≈ 12.8 µM) | 13.3 ± 1.6 | 87.3 | 21.1 µg/mL and 87.3 µM | 32.1 ± 5.4 | ≤ 3.1 | – | AUCinf ([3]; male Balb/c mice): 2807 ng·h/mL; AUC(0-inf) ([3]; male, Balb/c, mouse, iv): 2810 ng·h/mL; AUC(0-t) ([3]; mouse, male Balb/c mice): 2800 ng·h/mL; C0 ([3]; mouse, male Balb/c mice): 7710 ng/mL; clearance ([3]; mouse, male Balb/c mice): 59.4 mL/min/kg; half-life ([3]; mouse, male Balb/c mice, read-out: T(1/2), elimination half-life (converted)): 0.55 h; Vd ([3]; mouse, male Balb/c mice, read-out: Vss): 1.16 L/kg; Avg. Sol (Solubility; [7]): 21 ± 1.8 µg/mL |
| O=C(CSc1cnn[nH]1)Nc1ccccn1 [Compound 9] | 80.4 | 0.71 ± 0.02 | 7.7 | 2.7 ± 0.2 | 12.5 (≈ 53.1 µM) | 1.6 (≈ 6.8 µM) | 2.7 ± 0.2 | 87.4 | 20.6 µg/mL and 87.4 µM | 19.9 ± 1.9 | ≤ 3.1 | 20 ± 0.3 (≈ 85 µM) | – |
| O=C(CSc1cnn[nH]1)Nc1ccccc1F [Compound 1] | 209 | 0.27 ± 0.01 | 7 | 3 ± 0.2 | 12.5 (≈ 49.5 µM) | 1.6 (≈ 6.34 µM) | 0.39 ± 0.01 | 65.2 | 16.4 µg/mL and 65.2 µM | 34.8 ± 0.3 | ≤ 3.1 | 16 ± 0.8 (≈ 63.4 µM) | – |
| O=C(CSc1cnn[nH]1)Nc1ccc(F)cc1 [Compound 2] | 87.4 | 0.65 ± 0.03 | 4.4 | 4.7 ± 0.4 | 12.5 (≈ 49.5 µM) | 3.1 (≈ 12.3 µM) | 2.5 ± 0.2 | 73.4 | 18.5 µg/mL and 73.4 µM | 36.3 ± 5.5 | – | 18 ± 2.3 (≈ 71.4 µM) | – |
| O=C(NCCSc1cnn[nH]1)c1ccc(O)c(O)c1 [Compound 59] | – | – | – | – | – | 50 (≈ 178 µM) | – | – | – | – | – | – | Whole Cell Accumulation in E. coli (E. coli K12): 1.0 ± 0.1 μM/10^10 CFU; antibacterial activity against E. coli in words (E. coli K12 MG1655; E. coli K12): moderate activity |
| O=C(CSc1cnn[nH]1)Nc1ccc(N2C[C@@H]3NCCO[C@H]3C2)cc1 [Compound 53] | – | – | – | – | – | > 200 | – | – | – | – | – | – | Whole Cell Accumulation in E. coli (E. coli K12): 19 ± 1 μM/10^10 CFU |
